Results reported in ChEMBL document CHEMBL4507275, “Data for DCP probe BI-2545” (2021).

What was measured:
[1] = target: Receptor-type tyrosine-protein kinase FLT3 (Homo sapiens) (UniProt P36888); settings: Compound concentration 1000.0 nM
[2] = target: Protein-tyrosine kinase 2-beta (Homo sapiens) (UniProt Q14289); settings: Compound concentration 1000.0 nM
[3] = target: Casein kinase II subunit alpha' (Homo sapiens) (UniProt P19784); settings: Compound concentration 1000.0 nM
[4] = target: Beta-adrenergic receptor kinase 1 (Homo sapiens) (UniProt P25098); settings: Compound concentration 1000.0 nM
[5] = test system: Tyrosine-protein kinase ABL1 (Homo sapiens), P00519 [F317I]; settings: Compound concentration 1000.0 nM
[6] = target: Bone morphogenetic protein receptor type-2 (Homo sapiens) (UniProt Q13873); settings: Compound concentration 1000.0 nM
[7] = target: Cyclin-dependent kinase 11B (Homo sapiens) (UniProt P21127); settings: Compound concentration 1000.0 nM
[8] = target: Serine/threonine-protein kinase ULK2 (Homo sapiens) (UniProt Q8IYT8); settings: Compound concentration 1000.0 nM
[9] = target: Serine/threonine-protein kinase D3 (Homo sapiens) (UniProt O94806); settings: Compound concentration 1000.0 nM
[10] = target: Tyrosine-protein kinase Blk (Homo sapiens) (UniProt P51451); settings: Compound concentration 1000.0 nM
[11] = target: Muscle, skeletal receptor tyrosine-protein kinase (Homo sapiens) (UniProt O15146); settings: Compound concentration 1000.0 nM
[12] = target: Ribosomal protein S6 kinase beta-1 (Homo sapiens) (UniProt P23443); settings: Compound concentration 1000.0 nM
[13] = target: Ephrin type-A receptor 2 (Homo sapiens) (UniProt P29317); settings: Compound concentration 1000.0 nM
[14] = target: Serine/threonine-protein kinase/endoribonuclease IRE1 (Homo sapiens) (UniProt O75460); settings: Compound concentration 1000.0 nM
[15] = target: Angiopoietin-1 receptor (Homo sapiens) (UniProt Q02763); settings: Compound concentration 1000.0 nM
[16] = target: Sodium-dependent serotonin transporter (Homo sapiens) (UniProt P31645); settings: Compound concentration 10.0 uM
[17] = target: Tyrosine-protein kinase FRK (Homo sapiens) (UniProt P42685); settings: Compound concentration 1000.0 nM
[18] = target: Cyclin-dependent kinase 17 (Homo sapiens) (UniProt Q00537); settings: Compound concentration 1000.0 nM
[19] = test system: Receptor-type tyrosine-protein kinase FLT3 (Homo sapiens), P36888 [N841I]; settings: Compound concentration 1000.0 nM
[20] = target: Mast/stem cell growth factor receptor Kit (Homo sapiens) (UniProt P10721); settings: Compound concentration 1000.0 nM
[21] = target: Tyrosine-protein kinase JAK3 (Homo sapiens) (UniProt P52333); settings: Compound concentration 1000.0 nM
[22] = target: Serine/threonine-protein kinase mTOR (Homo sapiens) (UniProt P42345); settings: Compound concentration 1000.0 nM
[23] = target: Dual specificity mitogen-activated protein kinase kinase 1 (Homo sapiens) (UniProt Q02750); settings: Compound concentration 1000.0 nM
[24] = test system: Tyrosine-protein kinase ABL1 (Homo sapiens), P00519 [M351T]; settings: Compound concentration 1000.0 nM
[25] = target: Proto-oncogene tyrosine-protein kinase ROS (Homo sapiens) (UniProt P08922); settings: Compound concentration 1000.0 nM
[26] = target: Ephrin type-A receptor 3 (Homo sapiens) (UniProt P29320); settings: Compound concentration 1000.0 nM
[27] = target: Serine/threonine-protein kinase PAK 6 (Homo sapiens) (UniProt Q9NQU5); settings: Compound concentration 1000.0 nM
[28] = target: Serine/threonine-protein kinase PknB (Mycobacterium tuberculosis) (UniProt P9WI81); settings: Compound concentration 1000.0 nM
[29] = target: Dual specificity mitogen-activated protein kinase kinase 6 (Homo sapiens) (UniProt P52564); settings: Compound concentration 1000.0 nM
[30] = target: Mitogen-activated protein kinase 1 (Homo sapiens) (UniProt P28482); settings: Compound concentration 1000.0 nM
[31] = target: Fibroblast growth factor receptor 1 (Homo sapiens) (UniProt P11362); settings: Compound concentration 1000.0 nM
[32] = target: Mitogen-activated protein kinase kinase kinase 11 (Homo sapiens) (UniProt Q16584); settings: Compound concentration 1000.0 nM
[33] = target: Ephrin type-A receptor 5 (Homo sapiens) (UniProt P54756); settings: Compound concentration 1000.0 nM
[34] = test system: Epidermal growth factor receptor (Homo sapiens), P00533 [L858R]; settings: Compound concentration 1000.0 nM
[35] = target: Cyclin-dependent kinase 4 (Homo sapiens) (UniProt P11802); settings: Compound concentration 1000.0 nM
[36] = target: TGF-beta receptor type-2 (Homo sapiens) (UniProt P37173); settings: Compound concentration 1000.0 nM
[37] = target: Mast/stem cell growth factor receptor Kit (Homo sapiens) (UniProt P10721); settings: Compound concentration 1000.0 nM; remark: listed apart in the source
[38] = target: Serine/threonine-protein kinase Nek5 (Homo sapiens) (UniProt Q6P3R8); settings: Compound concentration 1000.0 nM
[39] = target: Serine/threonine-protein kinase 25 (Homo sapiens) (UniProt O00506); settings: Compound concentration 1000.0 nM
[40] = target: Calcium/calmodulin-dependent protein kinase type 1 (Homo sapiens) (UniProt Q14012); settings: Compound concentration 1000.0 nM
[41] = target: 3-phosphoinositide-dependent protein kinase 1 (Homo sapiens) (UniProt O15530); settings: Compound concentration 1000.0 nM
[42] = target: Mitogen-activated protein kinase kinase kinase 14 (Homo sapiens) (UniProt Q99558); settings: Compound concentration 1000.0 nM
[43] = target: Serine/threonine-protein kinase D2 (Homo sapiens) (UniProt Q9BZL6); settings: Compound concentration 1000.0 nM
[44] = target: Bone morphogenetic protein receptor type-1A (Homo sapiens) (UniProt P36894); settings: Compound concentration 1000.0 nM
[45] = target: Serine/threonine-protein kinase BRSK2 (Homo sapiens) (UniProt Q8IWQ3); settings: Compound concentration 1000.0 nM

Chain of Mast/stem cell growth factor receptor Kit (Homo sapiens) (P10721 whole entry): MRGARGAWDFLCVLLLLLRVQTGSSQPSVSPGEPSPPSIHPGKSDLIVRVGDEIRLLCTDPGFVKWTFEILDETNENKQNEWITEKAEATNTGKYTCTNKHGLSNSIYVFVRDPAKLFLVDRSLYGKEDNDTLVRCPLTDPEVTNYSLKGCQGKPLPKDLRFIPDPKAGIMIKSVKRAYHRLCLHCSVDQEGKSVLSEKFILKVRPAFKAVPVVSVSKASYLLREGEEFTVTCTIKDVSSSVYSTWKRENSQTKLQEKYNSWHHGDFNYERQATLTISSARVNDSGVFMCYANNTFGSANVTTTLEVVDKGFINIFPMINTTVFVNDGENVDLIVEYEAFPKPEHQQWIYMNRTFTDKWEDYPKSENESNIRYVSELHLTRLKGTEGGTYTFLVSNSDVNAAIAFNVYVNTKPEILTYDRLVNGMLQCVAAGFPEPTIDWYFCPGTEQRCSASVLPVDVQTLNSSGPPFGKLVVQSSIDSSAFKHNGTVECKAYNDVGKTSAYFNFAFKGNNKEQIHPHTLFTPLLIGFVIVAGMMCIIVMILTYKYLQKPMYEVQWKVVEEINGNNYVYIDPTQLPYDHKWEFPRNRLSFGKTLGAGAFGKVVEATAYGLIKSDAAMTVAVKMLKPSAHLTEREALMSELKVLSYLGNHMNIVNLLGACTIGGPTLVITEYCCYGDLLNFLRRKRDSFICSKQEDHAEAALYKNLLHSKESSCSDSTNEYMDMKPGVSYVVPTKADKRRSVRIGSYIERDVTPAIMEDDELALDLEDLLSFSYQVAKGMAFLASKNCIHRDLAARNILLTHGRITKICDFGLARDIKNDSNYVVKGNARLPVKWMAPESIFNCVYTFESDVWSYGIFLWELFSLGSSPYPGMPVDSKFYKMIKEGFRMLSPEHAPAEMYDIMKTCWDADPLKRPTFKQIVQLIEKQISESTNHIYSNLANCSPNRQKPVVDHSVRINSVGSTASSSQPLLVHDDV
Chain of Ephrin type-A receptor 3 (Homo sapiens) (P29320 whole entry): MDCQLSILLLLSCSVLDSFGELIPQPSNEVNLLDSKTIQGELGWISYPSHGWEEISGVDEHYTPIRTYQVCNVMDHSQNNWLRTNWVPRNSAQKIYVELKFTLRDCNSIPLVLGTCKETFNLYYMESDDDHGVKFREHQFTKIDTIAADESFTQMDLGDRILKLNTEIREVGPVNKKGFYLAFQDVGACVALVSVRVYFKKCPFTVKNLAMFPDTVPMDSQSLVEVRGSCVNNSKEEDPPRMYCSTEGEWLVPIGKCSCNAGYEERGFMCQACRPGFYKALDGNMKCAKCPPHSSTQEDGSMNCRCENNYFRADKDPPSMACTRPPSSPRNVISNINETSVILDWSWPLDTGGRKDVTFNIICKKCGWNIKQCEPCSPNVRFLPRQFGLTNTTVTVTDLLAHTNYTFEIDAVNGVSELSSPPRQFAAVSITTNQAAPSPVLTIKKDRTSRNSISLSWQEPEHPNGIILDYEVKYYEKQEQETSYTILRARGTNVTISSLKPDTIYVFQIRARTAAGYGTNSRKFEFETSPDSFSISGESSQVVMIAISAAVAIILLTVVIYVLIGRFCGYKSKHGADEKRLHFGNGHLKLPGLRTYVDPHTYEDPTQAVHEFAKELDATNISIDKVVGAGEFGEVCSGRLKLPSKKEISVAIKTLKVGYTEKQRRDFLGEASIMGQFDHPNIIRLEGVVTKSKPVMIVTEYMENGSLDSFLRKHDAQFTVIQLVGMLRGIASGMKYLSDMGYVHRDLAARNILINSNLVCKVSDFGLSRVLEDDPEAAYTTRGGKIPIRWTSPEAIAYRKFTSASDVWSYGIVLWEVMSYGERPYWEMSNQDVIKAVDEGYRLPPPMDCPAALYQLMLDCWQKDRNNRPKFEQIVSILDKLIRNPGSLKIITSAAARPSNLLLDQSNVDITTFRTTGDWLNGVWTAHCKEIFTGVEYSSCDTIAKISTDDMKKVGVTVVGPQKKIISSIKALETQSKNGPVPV
Chain of Bone morphogenetic protein receptor type-2 (Homo sapiens) (Q13873 whole entry): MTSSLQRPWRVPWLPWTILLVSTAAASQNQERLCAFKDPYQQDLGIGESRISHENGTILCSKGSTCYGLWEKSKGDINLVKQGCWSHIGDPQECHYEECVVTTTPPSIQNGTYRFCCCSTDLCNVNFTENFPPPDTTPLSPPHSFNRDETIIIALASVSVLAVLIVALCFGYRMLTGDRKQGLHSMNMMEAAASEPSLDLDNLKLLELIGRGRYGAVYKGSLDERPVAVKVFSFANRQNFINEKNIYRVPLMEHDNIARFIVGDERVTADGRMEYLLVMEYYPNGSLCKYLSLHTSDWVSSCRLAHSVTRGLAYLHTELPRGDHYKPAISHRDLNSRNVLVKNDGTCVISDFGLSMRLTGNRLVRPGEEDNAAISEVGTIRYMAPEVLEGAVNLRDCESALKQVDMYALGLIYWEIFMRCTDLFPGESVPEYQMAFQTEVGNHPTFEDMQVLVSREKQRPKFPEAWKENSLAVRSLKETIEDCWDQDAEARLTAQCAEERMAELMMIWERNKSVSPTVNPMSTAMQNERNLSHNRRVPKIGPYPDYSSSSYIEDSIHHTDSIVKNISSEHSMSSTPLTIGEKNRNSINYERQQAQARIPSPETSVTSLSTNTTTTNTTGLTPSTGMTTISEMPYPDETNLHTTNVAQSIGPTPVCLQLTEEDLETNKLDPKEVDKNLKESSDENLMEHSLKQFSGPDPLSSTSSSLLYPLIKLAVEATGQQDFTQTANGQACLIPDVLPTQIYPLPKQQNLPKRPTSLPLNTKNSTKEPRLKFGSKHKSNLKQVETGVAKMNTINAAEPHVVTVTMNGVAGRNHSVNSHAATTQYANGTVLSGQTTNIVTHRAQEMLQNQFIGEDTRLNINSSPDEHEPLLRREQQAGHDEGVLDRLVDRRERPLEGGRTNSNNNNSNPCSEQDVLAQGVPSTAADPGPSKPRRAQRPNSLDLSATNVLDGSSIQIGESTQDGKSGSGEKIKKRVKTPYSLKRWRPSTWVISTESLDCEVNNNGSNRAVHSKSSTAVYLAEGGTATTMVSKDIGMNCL
Chain of Serine/threonine-protein kinase D3 (Homo sapiens) (O94806 whole entry): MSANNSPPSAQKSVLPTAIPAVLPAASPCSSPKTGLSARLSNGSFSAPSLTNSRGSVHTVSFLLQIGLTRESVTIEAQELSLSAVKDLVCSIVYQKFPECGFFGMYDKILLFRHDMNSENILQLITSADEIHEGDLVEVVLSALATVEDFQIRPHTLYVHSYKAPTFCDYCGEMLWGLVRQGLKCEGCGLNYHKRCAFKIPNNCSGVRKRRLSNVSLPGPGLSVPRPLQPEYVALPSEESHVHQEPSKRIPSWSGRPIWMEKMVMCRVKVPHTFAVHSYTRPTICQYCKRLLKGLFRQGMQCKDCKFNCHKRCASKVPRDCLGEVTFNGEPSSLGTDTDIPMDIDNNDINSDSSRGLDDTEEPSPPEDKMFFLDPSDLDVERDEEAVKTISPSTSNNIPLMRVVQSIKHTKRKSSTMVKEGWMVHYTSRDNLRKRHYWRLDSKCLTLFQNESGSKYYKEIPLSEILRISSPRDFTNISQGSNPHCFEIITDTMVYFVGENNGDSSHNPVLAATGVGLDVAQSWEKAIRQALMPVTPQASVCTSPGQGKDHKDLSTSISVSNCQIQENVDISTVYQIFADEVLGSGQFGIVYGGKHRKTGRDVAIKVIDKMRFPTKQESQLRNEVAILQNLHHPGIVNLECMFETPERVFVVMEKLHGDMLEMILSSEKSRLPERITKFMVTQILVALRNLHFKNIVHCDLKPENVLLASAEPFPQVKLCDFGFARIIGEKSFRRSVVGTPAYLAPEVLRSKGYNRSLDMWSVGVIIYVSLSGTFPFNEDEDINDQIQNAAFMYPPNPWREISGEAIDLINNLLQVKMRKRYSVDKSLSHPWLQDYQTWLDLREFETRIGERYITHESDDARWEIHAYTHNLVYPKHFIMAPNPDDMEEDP
Chain of Ephrin type-A receptor 5 (Homo sapiens) (P54756 whole entry): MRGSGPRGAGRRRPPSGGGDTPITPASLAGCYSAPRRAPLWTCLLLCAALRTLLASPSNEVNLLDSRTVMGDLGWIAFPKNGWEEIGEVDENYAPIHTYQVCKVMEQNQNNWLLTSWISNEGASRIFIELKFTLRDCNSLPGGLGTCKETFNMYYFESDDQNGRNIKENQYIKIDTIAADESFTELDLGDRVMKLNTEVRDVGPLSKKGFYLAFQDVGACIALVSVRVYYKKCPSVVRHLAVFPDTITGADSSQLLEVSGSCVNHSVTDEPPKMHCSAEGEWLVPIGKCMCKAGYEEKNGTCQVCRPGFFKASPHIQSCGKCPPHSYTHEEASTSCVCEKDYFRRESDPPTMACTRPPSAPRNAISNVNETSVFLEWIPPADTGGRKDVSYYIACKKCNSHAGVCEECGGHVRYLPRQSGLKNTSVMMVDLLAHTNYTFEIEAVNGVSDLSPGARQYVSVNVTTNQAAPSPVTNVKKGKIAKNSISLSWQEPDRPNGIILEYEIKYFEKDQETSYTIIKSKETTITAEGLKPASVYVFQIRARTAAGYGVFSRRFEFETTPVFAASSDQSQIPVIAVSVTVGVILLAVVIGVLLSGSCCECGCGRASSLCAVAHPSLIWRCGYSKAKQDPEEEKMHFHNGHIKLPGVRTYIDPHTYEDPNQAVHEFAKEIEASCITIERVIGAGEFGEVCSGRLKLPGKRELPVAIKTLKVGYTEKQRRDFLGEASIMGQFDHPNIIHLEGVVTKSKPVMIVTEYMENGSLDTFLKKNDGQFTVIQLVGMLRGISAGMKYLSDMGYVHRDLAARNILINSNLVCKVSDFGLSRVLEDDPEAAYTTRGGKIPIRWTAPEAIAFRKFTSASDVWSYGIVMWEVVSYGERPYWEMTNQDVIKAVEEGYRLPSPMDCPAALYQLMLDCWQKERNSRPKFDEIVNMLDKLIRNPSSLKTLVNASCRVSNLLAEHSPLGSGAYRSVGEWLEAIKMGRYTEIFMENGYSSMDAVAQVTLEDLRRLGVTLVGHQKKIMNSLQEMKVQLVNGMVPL

O=C(NC[C@@H]1[C@H]2CN(C(=O)OCc3cc(C(F)(F)F)cc(C(F)(F)F)c3)C[C@@H]12)c1ccc2[nH]nnc2c1 [BI 2545]
inactive: residual activity [1] 93% | residual activity [2] 85% | residual activity [3] 92% | residual activity [4] 71% | residual activity [5] 88% | residual activity [6] 90% | residual activity [7] 100% | residual activity [8] 97% | residual activity [9] 83% | residual activity [10] 100% | residual activity [11] 77% | residual activity [12] 86% | residual activity [13] 79% | residual activity [14] 77% | residual activity [15] 89% | inhibition [16] -9.34% | residual activity [17] 83% | residual activity [18] 100% | residual activity [19] 90% | residual activity [20] 89% | residual activity [21] 69% | residual activity [22] 100% | residual activity [23] 83% | residual activity [24] 98% | residual activity [25] 100% | residual activity [26] 100% | residual activity [27] 93% | residual activity [28] 80% | residual activity [29] 72% | residual activity [30] 100% | residual activity [31] 90% | residual activity [32] 99% | residual activity [33] 100% | residual activity [34] 100% | residual activity [35] 95% | residual activity [36] 100% | residual activity [37] 90% | residual activity [38] 94% | residual activity [39] 95% | residual activity [40] 77% | residual activity [41] 96% | residual activity [42] 77% | residual activity [43] 85% | residual activity [44] 100% | residual activity [45] 96%

Cc1nccc(COC(=O)N2C[C@@H]3[C@@H](CNC(=O)c4ccc5[nH]nnc5c4)[C@@H]3C2)n1 [BI 3017]
inactive: residual activity [1] 89% | residual activity [2] 100% | residual activity [3] 85% | residual activity [4] 100% | residual activity [5] 81% | residual activity [6] 81% | residual activity [7] 100% | residual activity [8] 77% | residual activity [9] 100% | residual activity [10] 93% | residual activity [11] 100% | residual activity [12] 84% | residual activity [13] 92% | residual activity [14] 90% | residual activity [15] 90% | inhibition [16] -3.25% | residual activity [17] 100% | residual activity [18] 90% | residual activity [19] 82% | residual activity [20] 89% | residual activity [21] 96% | residual activity [22] 96% | residual activity [23] 92% | residual activity [24] 95% | residual activity [25] 100% | residual activity [26] 93% | residual activity [27] 95% | residual activity [28] 100% | residual activity [29] 100% | residual activity [30] 100% | residual activity [31] 91% | residual activity [32] 100% | residual activity [33] 93% | residual activity [34] 78% | residual activity [35] 80% | residual activity [36] 100% | residual activity [37] 79% | residual activity [38] 87% | residual activity [39] 100% | residual activity [40] 93% | residual activity [41] 100% | residual activity [42] 66% | residual activity [43] 92% | residual activity [44] 85% | residual activity [45] 86%
